Assays:
Type in all cases: in vivo
Abutilon theophrasti [1] = experiment: Pre-emergence herbicidal action, ABUTH; conditions: dosage 320 g/ha, scored visually after 3 weeks vs untreated controls
Method in brief: (§1)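 Weed seeds were laid out in sandy loam and covered with soil, then the soil surface was treated with an aqueous suspension or emulsion of the formulated compound containing 0.2% wetting agent. Pots stayed in the greenhouse for 3 weeks before damage was rated visually against untreated plants.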

Alopecurus myosuroides [2] = experiment: Pre-emergence herbicidal action, ALOMY; conditions: dosage 320 g/ha, scored visually after 3 weeks vs untreated controls
Method in brief: as §1

Amaranthus retroflexus [3] = experiment: Pre-emergence herbicidal action, AMARE; conditions: dosage 320 g/ha, scored visually after 3 weeks vs untreated controls
Method in brief: as §1

Avena fatua [4] = experiment: Pre-emergence herbicidal action, AVEFA; conditions: dosage 320 g/ha, scored visually after 3 weeks vs untreated controls
Method in brief: as §1

Cyperus serotinus = experiment: Pre-emergence herbicidal action, CYPES; conditions: dosage 320 g/ha, scored visually after 3 weeks vs untreated controls
Method in brief: as §1

Matricaria inodora = experiment: Pre-emergence herbicidal action, MATIN; conditions: dosage 320 g/ha, scored visually after 3 weeks vs untreated controls
Method in brief: as §1

Setaria viridis [5] = experiment: Pre-emergence herbicidal action, SETVI; conditions: dosage 320 g/ha, scored visually after 3 weeks vs untreated controls
Method in brief: as §1

Stellaria media [6] = experiment: Pre-emergence herbicidal action, STEME; conditions: dosage 320 g/ha, scored visually after 3 weeks vs untreated controls
Method in brief: as §1

Viola tricolor [7] = experiment: Pre-emergence herbicidal action, VIOTR; conditions: dosage 320 g/ha, scored visually after 3 weeks vs untreated controls
Method in brief: as §1

Abutilon theophrasti [8] = experiment: Post-emergence herbicidal action, ABUTH; conditions: 80 g/ha, Table D
Method in brief: (§2)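 Greenhouse-grown plants were sprayed at the one-leaf stage, 2–3 weeks after sowing. Damage was scored visually after about 3 weeks against untreated controls, as % action (100% = dead, 0% = like control).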

Alopecurus myosuroides [9] = experiment: Post-emergence herbicidal action, ALOMY; conditions: 80 g/ha, Table C
Method in brief: as §2

Amaranthus retroflexus [10] = experiment: Post-emergence herbicidal action, AMARE; conditions: 80 g/ha, Table D
Method in brief: as §2

Avena fatua [11] = experiment: Post-emergence herbicidal action, AVEFA; conditions: 80 g/ha, Table C
Method in brief: as §2

Pharbitis purpureum = experiment: Post-emergence herbicidal action, PHBPU; conditions: 80 g/ha, Table D
Method in brief: as §2

Setaria viridis [12] = experiment: Post-emergence herbicidal action, SETVI; conditions: 80 g/ha, Table C
Method in brief: as §2

Stellaria media [13] = experiment: Post-emergence herbicidal action, STEME; conditions: 80 g/ha, Table D
Method in brief: as §2

Viola tricolor [14] = experiment: Post-emergence herbicidal action, VIOTR; conditions: 80 g/ha, Table D
Method in brief: as §2

ECHCG = experiment: Post-emergence herbicidal action, ECHCG; conditions: 80 g/ha, Table C
Method in brief: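 Weed and crop plants grown in sandy loam in the greenhouse, treated at the one-leaf stage 2–3 weeks after sowing. Damage scored visually after about 3 weeks vs untreated controls (0% = control, 100% = dead).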

| Compound | herbicidal activity ABUTH (Abutilon theophrasti [1]) [%] | herbicidal activity ALOMY (Alopecurus myosuroides [2]) [%] | herbicidal activity AMARE (Amaranthus retroflexus [3]) [%] | herbicidal activity AVEFA (Avena fatua [4]) [%] | herbicidal activity CYPES (Cyperus serotinus) [%] | herbicidal activity MATIN (Matricaria inodora) [%] | herbicidal activity SETVI (Setaria viridis [5]) [%] | Herbicidal activity STEME (Stellaria media [6]) [%] | herbicidal activity VIOTR (Viola tricolor [7]) [%] | herbicidal activity ABUTH (Abutilon theophrasti [8]) [%] | herbicidal activity ALOMY (Alopecurus myosuroides [9]) [%] | herbicidal activity AMARE (Amaranthus retroflexus [10]) [%] | herbicidal activity AVEFA (Avena fatua [11]) [%] | Herbicidal activity PHBPU (Pharbitis purpureum) [%] | herbicidal activity SETVI (Setaria viridis [12]) [%] | Herbicidal activity STEME (Stellaria media [13]) [%] | herbicidal activity VIOTR (Viola tricolor [14]) [%] | Herbicidal activity ECHCG (ECHCG) [%] |
| --- | --- | --- | --- | --- | --- | --- | --- | --- | --- | --- | --- | --- | --- | --- | --- | --- | --- | --- |
| CCS(=O)(=O)c1c(C(F)F)ccc(C(=O)Nc2nnnn2C)c1Cl [Example 1-54] | 100 | 100 | 100 | 100 | 100 | 100 | 100 | 100 | 100 | 100 | 90 | 100 | 100 | 100 | 100 | 100 | 100 | 90 |
| CCn1nnnc1NC(=O)c1ccc(C(F)F)c(S(C)(=O)=O)c1C [Example 2-3] | 100 | 90 | 100 | 100 | 100 | 100 | 100 | 90 | 100 | 80 | 80 | 80 | 90 | 100 | 100 | 100 | 100 | 90 |
| Cn1nnnc1NC(=O)c1ccc(C(F)F)c([S+](C)[O-])c1F (stereo not drawn) [Example 1-38] | 100 | 100 | 100 | 100 | 90 | 100 | 100 | 100 | 100 | 100 | 90 | 90 | 90 | 90 | 100 | 100 | 100 | 100 |
| CCn1nnnc1NC(=O)c1ccc(C(F)F)c(SC)c1Cl [Example 2-49] | 100 | 100 | 100 | 100 | 90 | 100 | 100 | 90 | 100 | 100 | 100 | 100 | 100 | 100 | 100 | 100 | 100 | 100 |
| Cn1nnnc1NC(=O)c1ccc(C(F)F)c([S+](C)[O-])c1I (stereo not drawn) [Example 1-74] | 100 | 100 | 100 | 100 | 100 | 100 | 100 | 100 | 100 | 100 | 90 | 100 | 90 | 100 | 100 | 100 | 100 | 90 |
| CCS(=O)(=O)c1c(C(F)F)ccc(C(=O)Nc2nnnn2C)c1C [Example 1-6] | 100 | 100 | 100 | 100 | 100 | 100 | 100 | 100 | 100 | 90 | 100 | 100 | 100 | 100 | 100 | 100 | 100 | 100 |
| CCSc1c(C(F)F)ccc(C(=O)Nc2nnnn2C)c1Cl [Example 1-52] | 100 | 100 | 100 | 100 | 90 | 100 | 100 | 100 | 100 | 100 | 100 | 100 | 100 | 100 | 90 | 100 | 100 | 90 |
| CCn1nnnc1NC(=O)c1ccc(C(F)F)c(S(=O)(=O)CC)c1C1CC1 [Example 2-30] | 100 | 100 | 100 | 100 | 90 | 100 | 100 | 100 | 100 | 100 | 90 | 100 | 90 | 90 | 100 | 100 | 100 | 100 |
| CCSc1c(C(F)F)ccc(C(=O)Nc2nnc(C)o2)c1Br [Example 7-62] | 100 | 100 | 100 | 90 | 80 | 90 | 100 | 100 | 100 | 100 | 90 | 100 | 100 | 90 | 100 | 100 | 100 | 100 |
| CCc1c(C(=O)Nc2nnnn2CC)ccc(C(F)F)c1S(=O)(=O)CC [Example 2-18] | 100 | 100 | 100 | 100 | 90 | 100 | 100 | 100 | 100 | 100 | 80 | 100 | 100 | 100 | 90 | 100 | 100 | 90 |
| CCSc1c(C(F)F)ccc(C(=O)Nc2nnnn2C)c1C1CC1 [Example 1-28] | 100 | 100 | 100 | 100 | 100 | 100 | 100 | 100 | 100 | 100 | 90 | 100 | 100 | 100 | 100 | 100 | 100 | 100 |

— US20230183193A1, “4-DIFLUOROMETHYL BENZOYL AMIDES WITH HERBICIDAL ACTION” (BAYER CROPSCIENCE AKTIENGESELLSCHAFT, priority 2017, published 2023)
